This is an account of results in ChEMBL document CHEMBL1857833, “Screening and optimization of specific chemical series against human African Trypanosomiasis (HAT)”.

Data set [1] can be described thus: DNDI: Cytotoxicity against L929 mouse fibroblasts, CYTO-SP, 24 hour. To be noted: mouse, L929 mouse fibroblasts. The class given is toxicity, cell-based.
The next data set deals with Trypanosoma brucei. In words: DNDI: Inhibition of Human African Trypanosomiasis, SBRI 427, in vitro. It counts as functional, organism-based.
Data set [2] in a line: DNDI: Cytotoxicity against L929 mouse fibroblasts, 72 hour. The conditions noted are these: mouse, L929 mouse fibroblasts. The class given is toxicity, cell-based.
The mark [3] stands for this setting: Trypanosoma brucei, SBRI 427, read-out: IC50.

Values after ≈ are worked out from the molar mass of the structure shown. Bounds are passed on as bounds.

As usually defined, the IC50 is the concentration that inhibits the measured activity by half. `CC1CC(N/C(=N\O)c2cccnc2Oc2ccc(C(C)C)cc2)CC(C)(C)C1` (stereo not drawn) had a concentration for half-maximal inhibition (IC50) at 24 h in data set [1] of 21.9 µg/mL (≈ 55.4 µM). In the data set on Trypanosoma brucei (setting [3]), the IC50 turned out to be 0.54 µg/mL (≈ 1.37 µM).

In turn, `O/N=C(\NC1CCCCC1)c1ccc(Br)cc1` displayed an IC50 at 24 h in data set [1] of 38 µg/mL (≈ 128 µM). For the same molecule, the half-maximal inhibitory concentration (IC50) with Trypanosoma brucei (setting [3]) was greater than 5 µg/mL.

In turn, `COc1ccc(/C(=N/O)NCC2CCCCC2)cc1` yielded an IC50 at 24 h in data set [1] greater than 50 µg/mL. Besides, the IC50 in the data set with Trypanosoma brucei (setting [3]) came to 3.41 µg/mL (≈ 13 µM).

`COc1ccc(/C(CO)=N/O)cc1` yielded a half-inhibitory concentration (IC50) at 24 h in data set [1] greater than 50 µg/mL. Moreover, in the data set with Trypanosoma brucei (setting [3]), the IC50 was greater than 5 µg/mL.

Consider `COc1cccc(/C(N)=N/O)c1`, for which, in data set [1], the 50% inhibitory concentration (IC50) at 24 h is greater than 50 µg/mL. In the data set with Trypanosoma brucei (setting [3]), the half-maximal inhibitory concentration (IC50) was greater than 5 µg/mL.

In turn, `CC(C)c1ccc(Oc2ncccc2/C(=N/O)NCc2ccco2)cc1` returned an IC50 at 24 h in data set [1] greater than 50 µg/mL. Further, the IC50 with Trypanosoma brucei (setting [3]) amounted to 0.96 µg/mL (≈ 2.73 µM).

In data set [1], `COc1ccc(C(=O)NC2CCCCC2)cc1` displayed an IC50 at 24 h greater than 50 µg/mL. In the data set on Trypanosoma brucei (setting [3]), the concentration for half-maximal inhibition (IC50) is greater than 5 µg/mL.

In data set [1], `COCC(C)N/C(=N\O)c1ccnc(Oc2ccc(F)c(Cl)c2)c1` (stereo not drawn) came in with an IC50 at 24 h greater than 50 µg/mL. Besides, the concentration for half-maximal inhibition (IC50) in the data set on Trypanosoma brucei (setting [3]) was 0.82 µg/mL (≈ 2.32 µM).

In data set [1], `COc1cccc(-c2noc(C(C)C)n2)c1` yielded an IC50 at 24 h greater than 50 µg/mL. In addition, the IC50 in the data set on Trypanosoma brucei (setting [3]) was greater than 5 µg/mL.

For `COc1ccc(-c2noc(C(C)C)n2)cc1`, the IC50 at 24 h in data set [1] is greater than 50 µg/mL. The IC50 with Trypanosoma brucei (setting [3]) is greater than 5 µg/mL.

Molecule `COc1ccc(C(=O)N(C)OC)cc1` returned an IC50 at 24 h in data set [1] greater than 50 µg/mL. The IC50 with Trypanosoma brucei (setting [3]) was greater than 5 µg/mL.

Molecule `Cc1cc(C)cc(Oc2ccc(/C(=N/O)NCC3CC3)cn2)c1` showed an IC50 at 24 h in data set [1] greater than 50 µg/mL. In addition, in the data set on Trypanosoma brucei (setting [3]), the IC50 was 1.02 µg/mL (≈ 3.28 µM).

Take `OC/C(=N\O)c1ccccc1`: in data set [1], the half-inhibitory concentration (IC50) at 24 h is greater than 50 µg/mL. Moreover, in the data set with Trypanosoma brucei (setting [3]), the IC50 was greater than 5 µg/mL.

In data set [1], `CC(C)c1ccc(Oc2ncccc2/C(=N/O)NCC2CCCO2)cc1` (stereo not drawn) showed an IC50 at 24 h greater than 50 µg/mL. Also, the IC50 in the data set with Trypanosoma brucei (setting [3]) is 0.54 µg/mL (≈ 1.52 µM).

`CC(C)c1ccc(Oc2ncccc2/C(=N/O)NC2CCc3ccccc32)cc1` (stereo not drawn): the 50% inhibitory concentration (IC50) at 24 h in data set [1] is 45.1 µg/mL (≈ 116 µM). Moreover, the IC50 in the data set with Trypanosoma brucei (setting [3]) came to 0.98 µg/mL (≈ 2.53 µM).

For `CCN(CC)/C(=N\O)c1ccccc1-c1ccccc1`, in data set [1], the IC50 at 24 h was greater than 50 µg/mL. Moreover, the half-maximal inhibitory concentration (IC50) with Trypanosoma brucei (setting [3]) is greater than 5 µg/mL.

Molecule `COc1ccc(C(=O)NC2CCCCC2)c(OC)c1` had an IC50 at 24 h in data set [1] greater than 50 µg/mL. In the data set on Trypanosoma brucei (setting [3]), the IC50 was greater than 5 µg/mL.

As for `O/N=C(\NC1CCCCC1)c1cccc(Br)c1`, in data set [1], half-maximal inhibition (IC50 at 24 h) was put at 39 µg/mL (≈ 131 µM). In addition, the half-inhibitory concentration (IC50) with Trypanosoma brucei (setting [3]) worked out at 3.28 µg/mL (≈ 11 µM).

`COc1cc(C)ccc1Oc1ncccc1C(=N)N`: in data set [1], the IC50 at 24 h is greater than 50 µg/mL. The IC50 with Trypanosoma brucei (setting [3]) is greater than 5 µg/mL.

Take `CCc1ccc(N/C(=N/O)c2ccccc2-c2ccccc2)cc1`: half-maximal inhibition in data set [1] (IC50 at 24 h) required 15.6 µg/mL (≈ 49.4 µM). Further, the IC50 in the data set on Trypanosoma brucei (setting [3]) stood at 5 µg/mL (≈ 15.8 µM).

In data set [1], `CC(C)COc1ncccc1/C(=N/O)NC1CCCC1` showed an IC50 at 24 h greater than 50 µg/mL. In addition, in the data set on Trypanosoma brucei (setting [3]), the IC50 came to 0.96 µg/mL (≈ 3.46 µM).

With `O/N=C(\NC1CCCCC1)c1ccccc1F`, the IC50 at 24 h in data set [1] was greater than 50 µg/mL. The IC50 in the data set on Trypanosoma brucei (setting [3]) worked out at 3.92 µg/mL (≈ 16.6 µM).

`O/N=C(/c1ccccc1-c1ccccc1)N1CCCCCCC1`: the IC50 at 24 h in data set [1] is greater than 50 µg/mL. Moreover, the IC50 with Trypanosoma brucei (setting [3]) is greater than 5 µg/mL.

Regarding `CCOc1ccccc1-c1nc(CNC2C[C@@H]3C[C@H]([C@H]2C)C3(C)C)co1` (stereo partly drawn), half-maximal inhibition in data set [1] (IC50 at 24 h) was put at 27.8 µg/mL (≈ 78.4 µM). Also, the figures for the half-inhibitory concentration (IC50) in the data set on Trypanosoma brucei and in the data set with Trypanosoma brucei (setting [3]) were 2.05 µg/mL (≈ 5.78 µM) and 1.05 µg/mL (≈ 2.96 µM), respectively.

The molecule `COc1ccc(/C(CNC(C)C)=N/O)cc1` had an IC50 at 24 h in data set [1] greater than 50 µg/mL. In addition, in the data set on Trypanosoma brucei (setting [3]), the IC50 is greater than 5 µg/mL.

Molecule `COc1ccccc1/C(=N/O)N(C(=O)C(C)C)C(=O)C(C)C` displayed an IC50 at 24 h in data set [1] greater than 50 µg/mL. Moreover, the IC50 with Trypanosoma brucei (setting [3]) is greater than 5 µg/mL.

In turn, `O/N=C(\NC1CCCCC1)c1cccc(F)c1` came in with an IC50 at 24 h in data set [1] greater than 50 µg/mL. The IC50 with Trypanosoma brucei (setting [3]) is greater than 5 µg/mL.

As to `CCCCc1ccc(-c2nc(C(F)(F)F)co2)cc1`, the IC50 at 24 h in data set [1] was greater than 50 µg/mL. Further, in data set [2], it took 43.8 µg/mL (≈ 163 µM) to reach half-maximal inhibition (IC50 at 72 h). For the same molecule, in the data set with Trypanosoma brucei (setting [3]), the IC50 was greater than 5 µg/mL.

In data set [1], `CCCOc1ccc(-c2nc(CNC3CC(C)CC(C)(C)C3)co2)cc1` (stereo not drawn) came in with an IC50 at 24 h of 15.9 µg/mL (≈ 44.5 µM). This molecule also registered an IC50 at 72 h in data set [2] of less than 3.13 µg/mL. The IC50 in the data set on Trypanosoma brucei (setting [3]) was found to be 1.37 µg/mL (≈ 3.84 µM).

With `CCCOc1ccc(-c2nc(CNC[C@@H]3CC[C@H]4C[C@@H]3C4(C)C)co2)cc1`, in data set [1], the IC50 at 24 h stood at 16 µg/mL (≈ 43.5 µM). The IC50 at 72 h in data set [2] is less than 3.13 µg/mL. Further, the IC50 in the data set with Trypanosoma brucei (setting [3]) was found to be 0.74 µg/mL (≈ 2.01 µM).

`C[C@H]1C(NCc2coc(-c3ccccc3Br)n2)C[C@@H]2C[C@H]1C2(C)C` (stereo partly drawn) showed an IC50 at 24 h in data set [1] of 43.2 µg/mL (≈ 111 µM). The IC50 in the data set on Trypanosoma brucei amounted to 0.94 µg/mL (≈ 2.41 µM); with Trypanosoma brucei (setting [3]) it was 1.22 µg/mL (≈ 3.13 µM).

In the case of `O/N=C(\NC1CCCCC1)c1ccccc1Br`, in data set [1], the IC50 at 24 h was greater than 50 µg/mL. In the data set with Trypanosoma brucei (setting [3]), the IC50 was greater than 5 µg/mL.

With `CCCCc1ccc(-c2nc(C(C)(C)C)co2)cc1`, the IC50 at 24 h in data set [1] is greater than 50 µg/mL. Moreover, in data set [2], it took 28.7 µg/mL (≈ 112 µM) to reach half-maximal inhibition (IC50 at 72 h). In the data set with Trypanosoma brucei (setting [3]), the IC50 is greater than 5 µg/mL.

On to `COc1ccc(/C(=N/O)N(C(=O)C(C)C)C(=O)C(C)C)cc1`, for which the IC50 at 24 h in data set [1] is greater than 50 µg/mL. Moreover, the IC50 in the data set on Trypanosoma brucei (setting [3]) is greater than 5 µg/mL.

The molecule `CN(/C(=N\O)c1cccnc1OCc1ccccc1F)c1ccccc1` had an IC50 at 24 h in data set [1] greater than 50 µg/mL. Further, in the data set with Trypanosoma brucei (setting [3]), the IC50 amounted to 1.06 µg/mL (≈ 3.02 µM).

For the molecule `COc1ccc(C(=N)NO)cc1`, the IC50 at 24 h in data set [1] was greater than 50 µg/mL. Besides, the IC50 in the data set on Trypanosoma brucei (setting [3]) is greater than 5 µg/mL.
